Measurements taken from patent US8597875B2, “Method for diagnosing liver toxicity with sex specific biomarkers” (BASF SE, priority 2008, dated 2013).

Key:
female rats = experiment: Plasma metabolite profiling (GC-MS/LC-MS) for liver toxicity markers, 28-day gavage study, female rats; type: in vivo, rat; details: female rats
Experimental: (§1) A group of each 5 male and female rats was dosed once daily with the indicated compounds (see tables below) at 10 and 100 mg/kg body weight per gavage over 28 days. Additional groups of each 5 male and female animals served as controls. Before starting the treatment period, animals, which were 62-64 days old when supplied, were acclimatized to the housing and environmental conditions for 7 days. All animals of the animal population were kept under the same constant temperature (20-24±3° C.) and the same constant humidity (30-70%). Each animal of the animal population was kept in a separate cage. The animals of the animal population are fed ad libitum. The food to be used was be essentially free of chemical or microbial contaminants. Drinking water was also offered ad libitum. Accordingly, the water was be free of chemical and microbial contaminants as laid down in the European Drinking Water Directive 98/83/EG. The illumination period was 12 hours light followed by 12 hours darkness (12 hours light, from 6:00 to 18:00, and 12 hours darkness, from 18:00 to 6:00).
(§2) In the morning of day 7, 14, and 28, blood was taken from the retroorbital venous plexus from fasted anaesthetized animals. From each animal, 1 ml of blood was collected with EDTA as anticoagulant. The samples were be centrifuged for generation of plasma. All plasma samples were covered with a N2 atmosphere and then stored at −80° C. until analysis.
(§3) For mass spectrometry-based metabolite profiling analyses plasma samples were extracted and a polar and a non-polar fraction was obtained. For GC-MS analysis, the non-polar fraction was treated with methanol under acidic conditions to yield the fatty acid methyl esters. Both fractions were further derivatised with O-methyl-hydroxyamine hydrochloride and pyridine to convert Oxo-groups to O-methyloximes and subsequently with a silylating agent before analysis. In LC-MS analysis, both fractions were reconstituted in appropriate solvent mixtures. HPLC was performed by gradient elution on reversed phase separation columns. For mass spectrometric detection metanomics proprietary technology was applied which allows target and high sensitivity MRM (Multiple Reaction Monitoring) profiling in parallel to a full screen analysis.
(§4) Following comprehensive analytical validation steps, the data for each analyte were normalized against data from pool samples. These samples were run in parallel through the whole process to account for process variability. The significance of treatment group values specific for sex, dose group and metabolite was determined by comparing means of the treated groups to the means of the respective untreated control groups using WELCH-test. Normalized treatment group values and their significance were fed into a database for further statistics and data mining processes.
(§5) The changes of the group of plasma metabolites being indicative for liver toxicity after treatment of the rats are shown in the following tables: […]

male rats = experiment: Plasma metabolite profiling (GC-MS/LC-MS) for liver toxicity markers, 28-day gavage study, male rats; type: in vivo, rat; details: male rats
Experimental: as §1, §2, §3, §4, §5

## CN(C)C=O [Dimethylformamide]
Female rats; fh7 (day 7)
  1,2-Dioleoyl-sn-glycero-3-phosphatidyl-L-serine, change of plasma metabolite: 1.35
  4-Hydroxysphinganine, change of plasma metabolite: 1.79
  Arachidonic acid (C20:cis-[5,8,11,14]4), change of plasma metabolite: 2.04
  Behenic acid (C22:0), change of plasma metabolite: 2.15
  Ceramide (d18:1, C24:0), change of plasma metabolite: 1.64
  Cholesterol, change of plasma metabolite: 2.41
  Docosahexaenoic acid (C22:cis[4,7,10,13,16,19]6), change of plasma metabolite: 2.02
  Glycerol, lipid fraction, change of plasma metabolite: 1.64
  Glycerolphosphate, lipid fraction, change of plasma metabolite: 2.37
  Heptadecanoic acid (C17:0), change of plasma metabolite: 1.43
  ID28x493, change of plasma metabolite: 2.27
  Lignoceric acid (C24:0), change of plasma metabolite: 2.01
  Linoleic acid (C18:cis[9,12]2), change of plasma metabolite: 1.90
  Nervonic acid (C24:1), change of plasma metabolite: 2.51
  Palmitic acid (C16:0), change of plasma metabolite: 1.93
  Phosphate, lipid (Phospholipids), change of plasma metabolite: 1.51
  Stearic acid (C18:0), change of plasma metabolite: 1.62
  TAG No 1, change of plasma metabolite: 2.26
  Threonic acid, change of plasma metabolite: 1.49
  Tricosanoic acid (C23:0), change of plasma metabolite: 1.65
Female rats; fh14 (day 14)
  1,2-Dioleoyl-sn-glycero-3-phosphatidyl-L-serine, change of plasma metabolite: 1.69
  4-Hydroxysphinganine, change of plasma metabolite: 2.26
  Arachidonic acid (C20:cis-[5,8,11,14]4), change of plasma metabolite: 1.93
  Behenic acid (C22:0), change of plasma metabolite: 2.48
  Ceramide (d18:1, C24:0), change of plasma metabolite: 2.13
  Cholesterol, change of plasma metabolite: 2.23
  Docosahexaenoic acid (C22:cis[4,7,10,13,16,19]6), change of plasma metabolite: 2.21
  Glycerol, lipid fraction, change of plasma metabolite: 1.88
  Glycerolphosphate, lipid fraction, change of plasma metabolite: 1.97
  Heptadecanoic acid (C17:0), change of plasma metabolite: 1.64
  ID28x493, change of plasma metabolite: 3.14
  Lignoceric acid (C24:0), change of plasma metabolite: 2.29
  Linoleic acid (C18:cis[9,12]2), change of plasma metabolite: 2.33
  Nervonic acid (C24:1), change of plasma metabolite: 2.69
  Palmitic acid (C16:0), change of plasma metabolite: 2.08
  Phosphate, lipid (Phospholipids), change of plasma metabolite: 1.35
  Stearic acid (C18:0), change of plasma metabolite: 1.67
  TAG No 1, change of plasma metabolite: 2.87
  Threonic acid, change of plasma metabolite: 1.37
Female rats; fh28 (day 28)
  1,2-Dioleoyl-sn-glycero-3-phosphatidyl-L-serine, change of plasma metabolite: 1.47
  4-Hydroxysphinganine, change of plasma metabolite: 2.22
  Arachidonic acid (C20:cis-[5,8,11,14]4), change of plasma metabolite: 1.80
  Behenic acid (C22:0), change of plasma metabolite: 2.18
  Ceramide (d18:1, C24:0), change of plasma metabolite: 1.82
  Cholesterol, change of plasma metabolite: 2.08
  Docosahexaenoic acid (C22:cis[4,7,10,13,16,19]6), change of plasma metabolite: 1.76
  Glycerol, lipid fraction, change of plasma metabolite: 1.89
  Glycerolphosphate, lipid fraction, change of plasma metabolite: 2.35
  Heptadecanoic acid (C17:0), change of plasma metabolite: 1.48
  ID28x493, change of plasma metabolite: 2.02
  Lignoceric acid (C24:0), change of plasma metabolite: 2.45
  Linoleic acid (C18:cis[9,12]2), change of plasma metabolite: 2.37
  Nervonic acid (C24:1), change of plasma metabolite: 2.91
  Palmitic acid (C16:0), change of plasma metabolite: 1.93
  Phosphate, lipid (Phospholipids), change of plasma metabolite: 1.59
  Stearic acid (C18:0), change of plasma metabolite: 1.61
  TAG No 1, change of plasma metabolite: 3.81
  Threonic acid, change of plasma metabolite: 1.19
Male rats; mh7 (day 7)
  1,2-Dioleoyl-sn-glycero-3-phosphatidyl-L-serine, change of plasma metabolite: 1.31
  4-Hydroxysphingosine, change of plasma metabolite: 2.14
  Arachidonic acid (C20:cis-[5,8,11,14]4), change of plasma metabolite: 1.68
  Behenic acid (C22:0), change of plasma metabolite: 2.07
  Ceramide (d18:1, C24:0), change of plasma metabolite: 1.72
  Ceramide (d18:1, C24:1), change of plasma metabolite: 1.71
  Cholesterol, change of plasma metabolite: 2.01
  Docosahexaenoic acid (C22:cis[4,7,10,13,16,19]6), change of plasma metabolite: 1.96
  Eicosatrienoic acid, change of plasma metabolite: 2.55
  Glycerolphosphate, lipid fraction, change of plasma metabolite: 1.86
  Heptadecanoic acid (C17:0), change of plasma metabolite: 1.27
  Lignoceric acid (C24:0), change of plasma metabolite: 2.04
  Linoleic acid (C18:cis[9,12]2), change of plasma metabolite: 1.71
  Nervonic acid (C24:1), change of plasma metabolite: 2.53
  Palmitic acid (C16:0), change of plasma metabolite: 1.38
  Phosphatidylcholine (C18:2, C20:4), change of plasma metabolite: 1.18
  alpha-Tocopherol, change of plasma metabolite: 2.69
  myo-Inositol-2-monophosphate, lipid fraction, change of plasma metabolite: 1.92
Male rats; mh14 (day 14)
  1,2-Dioleoyl-sn-glycero-3-phosphatidyl-L-serine, change of plasma metabolite: 1.28
  4-Hydroxysphingosine, change of plasma metabolite: 2.07
  Arachidonic acid (C20:cis-[5,8,11,14]4), change of plasma metabolite: 1.74
  Behenic acid (C22:0), change of plasma metabolite: 2.15
  Ceramide (d18:1, C24:0), change of plasma metabolite: 1.40
  Ceramide (d18:1, C24:1), change of plasma metabolite: 1.70
  Cholesterol, change of plasma metabolite: 2.15
  Docosahexaenoic acid (C22:cis[4,7,10,13,16,19]6), change of plasma metabolite: 1.99
  Eicosatrienoic acid, change of plasma metabolite: 2.02
  Glycerolphosphate, lipid fraction, change of plasma metabolite: 1.67
  Heptadecanoic acid (C17:0), change of plasma metabolite: 1.51
  Lignoceric acid (C24:0), change of plasma metabolite: 2.22
  Linoleic acid (C18:cis[9,12]2), change of plasma metabolite: 1.70
  Nervonic acid (C24:1), change of plasma metabolite: 3.57
  Palmitic acid (C16:0), change of plasma metabolite: 1.64
  Phosphatidylcholine (C18:2, C20:4), change of plasma metabolite: 1.17
  alpha-Tocopherol, change of plasma metabolite: 2.46
  myo-Inositol-2-monophosphate, lipid fraction, change of plasma metabolite: 2.48
Male rats; mh28 (day 28)
  1,2-Dioleoyl-sn-glycero-3-phosphatidyl-L-serine, change of plasma metabolite: 1.41
  4-Hydroxysphingosine, change of plasma metabolite: 2.35
  Arachidonic acid (C20:cis-[5,8,11,14]4), change of plasma metabolite: 1.55
  Behenic acid (C22:0), change of plasma metabolite: 2.24
  Ceramide (d18:1, C24:0), change of plasma metabolite: 1.63
  Ceramide (d18:1, C24:1), change of plasma metabolite: 1.88
  Cholesterol, change of plasma metabolite: 1.81
  Docosahexaenoic acid (C22:cis[4,7,10,13,16,19]6), change of plasma metabolite: 2.06
  Eicosatrienoic acid, change of plasma metabolite: 1.60
  Glycerolphosphate, lipid fraction, change of plasma metabolite: 1.59
  Heptadecanoic acid (C17:0), change of plasma metabolite: 1.25
  Lignoceric acid (C24:0), change of plasma metabolite: 2.52
  Linoleic acid (C18:cis[9,12]2), change of plasma metabolite: 1.49
  Nervonic acid (C24:1), change of plasma metabolite: 3.39
  Palmitic acid (C16:0), change of plasma metabolite: 1.41
  Phosphatidylcholine (C18:2, C20:4), change of plasma metabolite: 1.26
  alpha-Tocopherol, change of plasma metabolite: 1.87
  myo-Inositol-2-monophosphate, lipid fraction, change of plasma metabolite: 2.31
